Data taken from US20100087388A1, “ODCASE INHIBITORS AS ANTI-VIRALS AND ANTIBIOTICS” (priority 2005, published 2010).
pKi: −log10 of the molar value.

Experiments:
[1] = system: human primary blood cells
[2] = target: T1, Staphylococcus aureus ODCase (Staphylococcus aureus, UniProt Q6GHN1); test: ODCase enzyme inhibition assay; format: biochemical; conditions: read-out: K1 against Staphylococcus aureus ODCase
T1 construct: made in house; host or cells: E. coli BL21(DE3), pET24a(+)
From the text: ODCase gene, pyrF, was obtained from the complete genomes of the respective bacteria through ATCC. The pyrF gene was amplified from the genome of S. aureus M252 using two synthetic primers: Dir 5′-[…] [SEQ ID NO: 1] and Rev 5′-[…] [SEQ ID NO: 2].
The pET expression system was used to express ODCase from pyrF. The cloning strategy can use any generic strategies, herein a double digestion of pET24a(+) expression vector and pyrF separately using EcoRI and HindIII restriction enzyme was used to produce digestion products with sticky ends. […] The digested vector was separated from the restriction enzyme by gel purification by QIAquick Gel Extraction Kit Protocol using microcentrifuge and quantified on 1% agarose gel with 2-log ladder as standard. In addition to quantifying DNA, 1% agarose gel was run with undigested vector to confirm that the vector was digested.
pyrF from the PCR mixture was also double digested in 50 uL solution using the same conditions described above. The separation of the pyrF from restriction enzymes was carried out by QIAquick Gel Extraction Kit Protocol using Microcentrifuge, and the collected gene was quantified on 1% agarose gel. […]

T1 sequence (Q6GHN1 whole entry): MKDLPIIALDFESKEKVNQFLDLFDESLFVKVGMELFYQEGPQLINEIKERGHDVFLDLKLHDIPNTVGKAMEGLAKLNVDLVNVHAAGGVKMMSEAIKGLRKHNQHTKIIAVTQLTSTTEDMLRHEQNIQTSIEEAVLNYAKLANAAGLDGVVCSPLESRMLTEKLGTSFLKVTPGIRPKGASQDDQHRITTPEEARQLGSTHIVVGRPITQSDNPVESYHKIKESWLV

SMILES	Effect on human primary blood cells (indications of toxicity) [1]	pKi [2]
O=c1cc(I)n([C@@H]2O[C@H](CO)[C@@H](O)[C@H]2O)c(=O)[nH]1 [Ia, 6-Iodo-uridine]	did not inhibit primary cells significantly	–
O=c1cc(I)n([C@@H]2O[C@H](COP(=O)(O)O)[C@@H](O)[C@H]2O)c(=O)[nH]1 [Ib, 6-Iodo uridine-5′-O-monophosphate]	–	> 7.30
